Where two headings read alike, the source gives them in different places.
Biological target: T1, hNav1.8 (Homo sapiens, UniProt Q9Y5Y9)
T1 construct: host or cells: HEK cells, stably transfected
Assay: hNav1.8 whole-cell patch-clamp electrophysiology (conventional or PatchXpress 7000) in stably transfected HEK cells
Type: cell-based
Text: The ability of the benzimidazole derivatives of the formula (I) to inhibit the Nav1.8 channel may be measured using the assay described below.
HEK cells stably transfected with hNav1.8, purchased from Millipore (Millipore Corp., Billerica, Mass. 01821), were maintained according to manufacturer's instructions. For electrophysiological studies, cells were removed from the culture flask by brief trypsinization and re-plated at low density onto glass cover slips. Cells were typically used for electrophysiological experiments within 24 to 72 h after plating.
Cover slips containing HEK cells expressing hNav1.8 were placed in a bath on the stage of an inverted microscope and perfused (approximately 1 ml/min) with extracellular solution of the following composition: 138 mM NaCl, 2 mM CaCl2, 5.4 mM KCl, 1 mM MgCl2, 10 mM glucose, and 10 mM HEPES, pH 7.4, with NaOH. […] The osmolarity of the extracellular and intracellular solutions was 300 mOsm/kg and 295 mOsm/kg, respectively. All recordings were made at room temperature (22-24° C.) using AXOPATCH 200B amplifiers and PCLAMP software (Axon Instruments, Burlingame, Calif.).
hNav1.8 currents in HEK cells were measured using the whole-cell configuration of the patch-clamp technique (Hamill et al., 1981). Uncompensated series resistance was typically 2 to 5 mega ohms and >85% series resistance compensation was routinely achieved. As a result, voltage errors were negligible and no correction was applied. Current records were acquired at 20 to 50 KHz and filtered at 5 to 10 KHz.
HEK cells stably transfected with hNav1.8 were viewed under Hoffman contrast optics and placed in front of an array of flow pipes emitting either control or compound-containing extracellular solutions. All compounds were dissolved in dimethyl sulfoxide to make 10 mM stock solutions, which were then diluted into extracellular solution to attain the final concentrations desired.
The voltage-dependence of inactivation was determined by applying a series of depolarizing prepulses (8 sec long in 10 mV increments) from a negative holding potential. The voltage was then immediately stepped to 0 mV to assess the magnitude of the sodium current. Currents elicited at 0 mV were plotted as a function of prepulse potential to allow estimation of the voltage at which 50% of the channels were inactivated (midpoint of inactivation or V1/2). Compounds were tested for their ability to inhibit hNav1.8 sodium channels by activating the channel with a 20 msec voltage step to 0 mV following an 8 second conditioning prepulse to the empirically determined V1/2. Compound effect (% inhibition) was determined by difference in current amplitude before and after application of test compounds. For ease of comparison, “estimated IC50” values were calculated from single point electrophysiology data by the following equation, (tested concentration, uM)×(100-% inhibition/% inhibition). Inhibition values<20% and >80% were excluded from the calculation.
In some cases electrophysiological assays were conducted with PatchXpress 7000 hardware and associated software (Molecular Devices Corp). All assay buffers and solutions were identical to those used in conventional whole-cell voltage clamp experiments described above. hNav1.8 cells were grown as above to 50%-80% confluency and harvested by trypsinization. Trypsinized cells were washed and resuspended in extracellular buffer at a concentration of 1×10^6 cells/ml. The onboard liquid handling facility of the PatchXpress was used for dispensing cells and application of test compounds. Determination of the voltage midpoint of inactivation was as described for conventional whole-cell recordings. Cells were then voltage-clamped to the empirically determined V1/2 and current was activated by a 20 msec voltage step to 0 mV.
Estimated IC50 values for the compounds of formula (I) exemplified above are as follows. […]

[1] = estimated IC50 calculated from single point % inhibition, HEK cells expressing hNav1.8, 8 sec prepulse to V1/2, 20 msec step to 0 mV, average of replicates, read-out: Nav1.8 EIC50

T1 sequence (Q9Y5Y9 whole entry): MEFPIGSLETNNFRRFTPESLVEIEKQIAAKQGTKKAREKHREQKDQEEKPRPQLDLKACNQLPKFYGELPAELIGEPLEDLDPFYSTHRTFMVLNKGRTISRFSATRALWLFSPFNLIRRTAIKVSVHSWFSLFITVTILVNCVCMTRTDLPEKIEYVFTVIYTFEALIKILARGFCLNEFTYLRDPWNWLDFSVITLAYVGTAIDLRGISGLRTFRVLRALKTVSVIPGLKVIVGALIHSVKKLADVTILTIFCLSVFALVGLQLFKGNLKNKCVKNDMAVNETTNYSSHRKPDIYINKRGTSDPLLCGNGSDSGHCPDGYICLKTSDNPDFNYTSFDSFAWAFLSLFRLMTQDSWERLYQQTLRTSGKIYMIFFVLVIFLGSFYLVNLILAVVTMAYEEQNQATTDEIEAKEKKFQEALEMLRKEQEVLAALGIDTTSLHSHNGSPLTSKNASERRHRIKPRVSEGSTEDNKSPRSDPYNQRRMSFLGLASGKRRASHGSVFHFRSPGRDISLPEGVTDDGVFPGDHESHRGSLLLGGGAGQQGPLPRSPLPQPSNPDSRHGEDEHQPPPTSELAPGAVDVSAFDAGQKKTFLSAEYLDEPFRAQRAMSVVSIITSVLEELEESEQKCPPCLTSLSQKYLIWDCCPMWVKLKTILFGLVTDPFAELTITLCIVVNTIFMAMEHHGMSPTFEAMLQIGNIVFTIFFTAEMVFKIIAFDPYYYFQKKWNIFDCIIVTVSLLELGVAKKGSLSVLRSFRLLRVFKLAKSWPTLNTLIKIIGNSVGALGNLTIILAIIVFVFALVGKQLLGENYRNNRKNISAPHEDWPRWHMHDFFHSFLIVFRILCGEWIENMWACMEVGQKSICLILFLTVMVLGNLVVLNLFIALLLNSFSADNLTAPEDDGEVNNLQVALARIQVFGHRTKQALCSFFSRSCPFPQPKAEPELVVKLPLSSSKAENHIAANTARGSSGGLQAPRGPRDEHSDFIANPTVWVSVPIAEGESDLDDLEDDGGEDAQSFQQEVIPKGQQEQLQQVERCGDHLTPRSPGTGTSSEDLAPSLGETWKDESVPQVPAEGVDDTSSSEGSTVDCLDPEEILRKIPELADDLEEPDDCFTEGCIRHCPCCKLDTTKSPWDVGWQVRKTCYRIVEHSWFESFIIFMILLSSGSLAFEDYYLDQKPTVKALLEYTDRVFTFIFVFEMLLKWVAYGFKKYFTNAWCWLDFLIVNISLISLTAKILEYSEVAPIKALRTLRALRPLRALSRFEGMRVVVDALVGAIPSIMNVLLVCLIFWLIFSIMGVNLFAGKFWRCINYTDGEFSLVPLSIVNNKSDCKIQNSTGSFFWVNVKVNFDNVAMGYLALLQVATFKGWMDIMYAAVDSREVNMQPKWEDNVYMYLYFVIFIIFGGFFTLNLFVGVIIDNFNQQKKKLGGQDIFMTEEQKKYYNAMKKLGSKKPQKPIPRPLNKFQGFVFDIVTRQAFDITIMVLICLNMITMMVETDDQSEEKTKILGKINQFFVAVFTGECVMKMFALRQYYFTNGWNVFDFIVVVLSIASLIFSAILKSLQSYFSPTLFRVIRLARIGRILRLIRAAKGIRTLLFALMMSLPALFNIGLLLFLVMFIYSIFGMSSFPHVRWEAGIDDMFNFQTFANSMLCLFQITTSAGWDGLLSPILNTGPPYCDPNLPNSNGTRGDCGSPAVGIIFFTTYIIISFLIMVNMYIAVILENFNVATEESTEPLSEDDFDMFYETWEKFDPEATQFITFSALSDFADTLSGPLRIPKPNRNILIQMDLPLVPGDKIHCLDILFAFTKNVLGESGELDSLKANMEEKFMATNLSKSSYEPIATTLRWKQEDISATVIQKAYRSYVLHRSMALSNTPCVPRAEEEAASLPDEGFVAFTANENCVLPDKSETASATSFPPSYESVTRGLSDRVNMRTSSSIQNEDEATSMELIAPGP

IC50 [1] [nM] | SMILES | IC50 [nM]
15.4 | C[C@@H](C(N)=O)[C@H](N)c1nc2cc(C(C)(C)C)ccc2[nH]1 (single isomer, unassigned) [Example 103] | 
1580 | C[C@H](C(N)=O)[C@H](N)c1nc2cc(C(C)(C)C)ccc2[nH]1 (single isomer, unassigned) [Example 104] | 
713 | N#Cc1ccc(-c2ccc3[nH]c([C@@H]4C[C@@H](O)CN4)nc3c2)cc1 (stereo in doubt) [Example 46, 4-{2-[(2S,4R)-4-Hydroxypyrrolidin-2-yl]-1H-benzimidazol-5-yl}benzonitrile] | 
127 | CC(C)CC[C@H](N)c1nc2cc(C(C)(C)C)ccc2[nH]1 [Example 1, (1S)-1-(5-tert-Butyl-1H-benzimidazol-2-yl)-4-methylpentan-1-amine] | 
76 | CC(C)(C)c1ccc2[nH]c(C3(N)Cc4ccccc4C3)nc2c1 [Example 2, 2-(5-tert-Butyl-1H-benzimidazol-2-yl)-2,3-dihydro-1H-inden-2-amine] | 
12.5 | CC(C)(C)c1ccc2[nH]c([C@@H](N)C3CCCC3)nc2c1 [Example 3, (S)-1-(5-tert-Butyl-1H-benzimidazol-2-yl)-1-cyclopentylmethanamine] | 
364 | CC(C)[C@H](N)c1nc2cc(C(C)(C)C)ccc2[nH]1 [Example 5, (1S)-1-(5-tert-Butyl-1H-benzimidazol-2-yl)-2-methylpropan-1-amine] | 
433 | CC(C)(C)c1ccc2[nH]c([C@@H](N)C(C)(C)C)nc2c1 [Example 6, (1S)-1-(5-tert-Butyl-1H-benzimidazol-2-yl)-2,2-dimethylpropan-1-amine] | 
439 | C[C@H](N)c1nc2cc(C(C)(C)C)ccc2[nH]1 [Example 7, (1S)-1-(5-tert-Butyl-1H-benzimidazol-2-yl)ethanamine] | 
108 | CC(C)C[C@@H](N)c1nc2cc(C(C)(C)C)ccc2[nH]1 [Example 8, (1R)-1-(5-tert-Butyl-1H-benzimidazol-2-yl)-3-methylbutan-1-amine] | 
347 | CC(C)[C@@H](N)c1nc2cc(C(C)(C)C)ccc2[nH]1 [Example 9, (1R)-1-(5-tert-Butyl-1H-benzimidazol-2-yl)-2-methylpropan-1-amine] | 
607 | C[C@@H](N)c1nc2cc(C(C)(C)C)ccc2[nH]1 [Example 10, (1R)-1-(5-tert-Butyl-1H-benzimidazol-2-yl)ethanamine] | 
29.7 | CCCC[C@H](N)c1nc2cc(C(C)(C)C)ccc2[nH]1 [Example 11, (1S)-1-(5-tert-Butyl-1H-benzimidazol-2-yl)pentan-1-amine] | 
243 | COC[C@H](N)c1nc2cc(C(C)(C)C)ccc2[nH]1 [Example 12, (1R)-1-(5-tert-Butyl-1H-benzimidazol-2-yl)-2-methoxyethanamine] | 
476 | CC(C)C[C@H](N)c1nc2cc(C(C)(C)C)ccc2[nH]1 [Example 14, (1S)-1-(5-tert-Butyl-1H-benzimidazol-2-yl)-3-methylbutan-1-amine] | 
123 | CC(C)(C)c1ccc2[nH]c([C@H](N)C(C)(C)C)nc2c1 [Example 15, (1R)-1-(5-tert-Butyl-1H-benzimidazol-2-yl)-2,2-dimethylpropan-1-amine] | 
2510 | C[C@H](O)[C@@H](N)c1nc2cc(C(C)(C)C)ccc2[nH]1 [Example 16, (1S,2S)-1-Amino-1-(5-tert-butyl-1H-benzimidazol-2-yl)propan-2-ol] | 
 | CC(C)(C)c1ccc2[nH]c(C3(N)CCCCC3)nc2c1 [Example 17, 1-(5-tert-Butyl-1H-benzimidazol-2-yl)cyclohexanamine] | 468

IC50 [1] [nM] | SMILES | IC50 [nM]
487 | C[C@@H](O)[C@@H](N)c1nc2cc(C(C)(C)C)ccc2[nH]1 [Example 18, (1S,2R)-1-Amino-1-(5-tert-butyl-1H-benzimidazol-2-yl)propan-2-ol] | 
176 | C[C@H](O)[C@H](N)c1nc2cc(C(C)(C)C)ccc2[nH]1 [Example 19, (1R,2S)-1-Amino-1-(5-tert-butyl-1H-benzimidazol-2-yl)propan-2-ol] | 
106 | CC(C)(C)c1ccc2[nH]c([C@@H](N)CO)nc2c1 [Example 20, (2R)-2-Amino-2-(5-tert-butyl-1H-benzimidazol-2-yl)ethanol] | 
32.6 | CO[C@H](C)[C@H](N)c1nc2cc(C(C)(C)C)ccc2[nH]1 [Example 21, (1R,2R)-1-(5-tert-Butyl-1H-benzimidazol-2-yl)-2-methoxypropan-1-amine] | 
108 | CC(C)(C)c1ccc2[nH]c([C@@H]3C[C@H](O)CN3)nc2c1 [Example 22, (3S,5S)-5-(5-tert-Butyl-1H-benzimidazol-2-yl)pyrrolidin-3-ol] | 
44.6 | CC[C@@H](C)[C@@H](N)c1nc2cc(C(C)(C)C)ccc2[nH]1 [Example 23, (1R,2R)-1-(5-tert-Butyl-1H-benzimidazol-2-yl)-2-methylbutan-1-amine] | 
58 | CC(C)(C)c1ccc2[nH]c([C@H]3C[C@@H](O)CN3)nc2c1 [Example 24, (3R,5R)-5-(5-tert-Butyl-1H-benzimidazol-2-yl)pyrrolidin-3-ol] | 
74.2 | CC(C)(C)c1ccc2[nH]c([C@H]3CCCN3)nc2c1 [Example 25, 5-tert-Butyl-2-[(2R)-pyrrolidin-2-yl]-1H-benzimidazole] | 
31.5 | CC(C)(C)c1ccc2[nH]c([C@@H]3C[C@@H](O)CN3)nc2c1 [Example 26, (3R,5S)-5-(5-tert-Butyl-1H-benzimidazol-2-yl)pyrrolidin-3-ol] | 
153 | COC(C)(C)C(N)c1nc2cc(C(C)(C)C)ccc2[nH]1 (centres unmarked) [Example 27, 1-(5-tert-Butyl-1H-benzimidazol-2-yl)-2-methoxy-2-methylpropan-1-amine] | 
130 | CC(C)(C)c1ccc2[nH]c([C@H](N)CC(N)=O)nc2c1 [Example 28, (3R)-3-Amino-3-(5-tert-butyl-1H-benzimidazol-2-yl)propanamide] | 
390 | CCC(C)(C)c1ccc2[nH]c([C@@H]3C[C@H](O)CN3)nc2c1 [Example 29, (3S,5S)-5-[5-(2-Methylbutan-2-yl)-1H-benzimidazol-2-yl]pyrrolidin-3-ol] | 
148 | CCC(C)(C)c1ccc2[nH]c([C@@H](N)CC(N)=O)nc2c1 [Example 30, (3S)-3-Amino-3-[5-(2-methylbutan-2-yl)-1H-benzimidazol-2-yl]propanamide] | 
125 | CCC(C)(C)c1ccc2[nH]c([C@@H](N)COC)nc2c1 [Example 31, (1R)-2-Methoxy-1-[5-(2-methylbutan-2-yl)-1H-benzimidazol-2-yl]ethanamine] | 
163 | N#Cc1ccc(-c2ccc3[nH]c([C@@H](N)C4CCCC4)nc3c2)cc1 [Example 32, 4-{2-[(S)-Amino(cyclopentyl)methyl]-1H-benzimidazol-5-yl}benzonitrile] | 
266 | CCC(C)(C)c1ccc2[nH]c(C3(N)Cc4ccccc4C3)nc2c1 [Example 33, 2-[5-(2-Methylbutan-2-yl)-1H-benzimidazol-2-yl]-2,3-dihydro-1H-inden-2-amine] | 
30.6 | N#Cc1ccc(-c2ccc3[nH]c(C4(N)Cc5ccccc5C4)nc3c2)cc1 [Example 34, 4-[2-(2-Amino-2,3-dihydro-1H-inden-2-yl)-1H-benzimidazol-5-yl]benzonitrile] | 
171 | CCC(C)(C)c1ccc2[nH]c([C@H](C)N)nc2c1 [Example 35, (1S)-1-[5-(2-Methylbutan-2-yl)-1H-benzimidazol-2-yl]ethanamine] | 

SMILES | IC50 [1] [nM] | IC50 [nM]
CC(C)(C)c1ccc2[nH]c(C3(N)CCC3)nc2c1 [Example 4, 1-(5-tert-Butyl-1H-benzimidazol-2-yl)cyclobutanamine] | 447 | 
CC(C)(C)c1ccc2[nH]c(C3(N)CCCC3)nc2c1 [Example 13, 1-(5-tert-Butyl-1H-benzimidazol-2-yl)cyclopentanamine] | 496 | 

Source: patent US8927587B2, “Chemical compounds” (Pfizer Limited, priority 2012, dated 2015)
